“Also recorded” adds a separate entry of the source.
What was measured:
obese ZSF1 rats [1] = tested on: obese ZSF1 rats; set-up: method as in Bilan et al., 2011; settings: 8-week old obese ZSF1 rats, enalapril 60 mg/kg/day in drinking water for 24 weeks; ref Bilan et al., 2011; cited from earlier work
obese ZSF1 rats [2] = experiment: ZSF1 rat model of metabolic syndrome and diabetic nephropathy; assay type: in vivo
Method: Lean (n=8, 370–420 g, 15 weeks) and obese (n=32, 500–630 g, 15 weeks) male ZSF1 rats were studied. Rats were treated with enalapril to reflect standard of care drug treatment for patients with diabetic kidney disease. Dose modeling based on allometric scaling relationships estimated that a 10 mg/day enalapril dose in humans (within usual dose range of 10–40 mg based on prescribing information) corresponds to 1 mg/kg/day in rats ([Nair and Jacob, 2016]). To measure hemodynamics in freely moving animals, ZSF1 obese rats were implanted with telemetry transmitters (HD-S10, Data Sciences International) at 9–10 weeks of age, as described above.
The study included a 10-day pretreatment period and a 10-week treatment period. There were five groups of rats in the study. The lean ZSF1 control group (lean control, n=8) and one obese group (obese control, n=8) were fed normal chow and drinking water throughout the 10-day pretreatment period and the 10-week treatment period. Three groups of obese rats were treated with enalapril in drinking water (equivalent to 3 mg/kg/day) throughout the 10-day pretreatment period and the 10-week treatment period. During the treatment period, these enalapril-treated obese rats were administered normal chow (ENP, n=8) or chow containing olinciguat targeting the dose of 10 mg/kg/day (ENP+OLI10, n=8) or 30 mg/kg/day (ENP+OLI30, n=8). Blood and 24-h urine samples were obtained from all animals at baseline (immediately prior to initiation of enalapril treatment), the end of the 10-day pretreatment period (Day 10) and at week 5 and week 10 of the treatment period. Plasma samples were obtained from all olinciguat-treated animals for measurement of olinciguat exposure at week 10. During week 9 of treatment, rats were fasted for 16 h overnight prior to determination of fasting blood glucose using the AlphaTRAK (Abbott) glucose monitoring system. Body weight was measured once every other week. At the end of the study, rats were anesthetized and perfused via the left ventricle with heparinized PBS (1 U/ml heparin) containing IBMX (1 mM). Organs were collected and weighed, and plasma was collected in EDTA tubes. For serum, blood was collected in serum separator tubes, maintained at room temperature for at least 30 min and centrifuged at 6,000 rpm for 10 min, and then stored at −80°C until analysis. Urine and serum samples were analyzed using the Randox Daytona Clinical Chemistry Analyzer (Randox, Kearneysville, WV) for urine protein, serum cholesterol and serum triglycerides. All measurements were performed in accordance with manufacturer's instructions.
For histology, one kidney from each rat was fixed in 10% formalin, then embedded in paraffin. Slides were prepared and stained with hematoxylin and eosin (H&E) and periodic-acid Schiff (PAS) for light microscopic analysis. Kidney sections were evaluated for the presence of glomerular pathology, tubular damage, interstitial inflammation, interstitial fibrosis, and vascular alterations. Severity-based scoring based on these evaluations was performed by a trained pathologist.
For the ZSF1 experiment, data are expressed as mean ± standard error of the mean (SEM).
In the ZSF1 study, change from baseline NT-proBNP, week 10 heart, kidney, and liver weight, urine volume, cholesterol, triglycerides, glucose, and renal histopathology sum score were analyzed by one-way ANOVA corrected for multiple comparisons using Tukey's method. Statistically significant differences vs the obese control and vs the ENP group are indicated in the results. MAP and UPE were analyzed by an ordinary two-way ANOVA with timepoint and treatment group as independent variables, followed by a Tukey's multiple comparisons test. Within each treatment group, significant differences vs baseline are indicated in the results. At week 10, statistically significant differences vs the obese control and vs the ENP control are also indicated in the results.

[3] = set-up: method as in Tobin et al., 2018; settings: ref Tobin et al., 2018; cited from earlier work
[4] = set-up: method as in Forgue et al., 2006; settings: healthy volunteers, after 10 days of dosing at 20 mg QD; ref Forgue et al., 2006; read-out: Cmax plasma concentration; cited from earlier work
[5] = tested on: pulmonary artery smooth muscle from healthy subjects; set-up: method as in Yamamura et al., 2017; settings: ref Yamamura et al., 2017; cited from earlier work
[6] = tested on: pulmonary artery smooth muscle from idiopathic pulmonary arterial hypertension (PAH) patients; set-up: method as in Yamamura et al., 2017; settings: ref Yamamura et al., 2017, read-out: IC50, inhibition of proliferation; cited from earlier work
[7] = tested on: vascular smooth muscle cells (VSMC) from rat aorta; experiment: Rat aorta vascular smooth muscle cell proliferation (3H-thymidine incorporation); assay type: cell-based; settings: tadalafil alone at or below 10 µM; 5% FBS, 10 µM DETA
Method: We explored the concentration response of olinciguat, tadalafil, and olinciguat in the presence of 1 μM tadalafil on rat aorta vascular smooth muscle proliferation, Tadalafil was used because it is a once-daily PDE5 inhibitor that, like the three-times-daily PDE5 inhibitor sildenafil, is approved for treatment of PAH and ED. Vascular smooth muscle cells (VSMC) from rat aorta (Lonza, R-ASM-580) were plated into a 96-well plate at 15,000 cells per well in DMEM:F12 containing 20% FBS and GA-1000 ([Gentamicin, Amphotericin B], Lonza, CC-40863) for 24 h at 37°C. Medium was removed and cells were washed once with 100 μl DMEM:F12 before adding 100 μl of DMEM:F12 and incubating for 24 h to induce quiescence. Cells were then cultured for 24 h in DMEM:F12 supplemented with 5% FBS, in the presence of test articles (vehicle, olinciguat, tadalafil) with 10 µM DETA. In the last 6 h, 0.2 μCi of ^3H-thymidine (American Radiolabeled Chemicals, ART 0178A) was added to each well to measure DNA synthesis by thymidine incorporation. Cells were washed once with HBSS and then trypsinized and transferred into FB filter plates (Millipore, MADVNOB). A rapid-filtration technique using a filtration apparatus (Millipore, MAVM0960R) with vacuum aspiration was used to harvest and rinse labeled cells (6× with 0.2 ml of chilled water). The radioactivity bound to the filters was counted with 80 µl of liquid scintillant (PerkinElmer, UltraGold MV, 6013159) in a scintillation counter (Perkin Elmer Microbeta instrument).
In the vascular smooth muscle cell proliferation experiment, a comparison between the IC50's for olinciguat alone vs oliniciguat in the presence of 1 µM tadalafil was performed by a two-tailed t-test using Log EC50 best fit values and SEs determined from a four-parameter nonlinear curve fit, assuming n=60 degrees of freedom.

**Q.** For `CCOC(=O)[C@H](CCc1ccccc1)N[C@@H](C)C(=O)N1CCC[C@H]1C(=O)O` [ENP, reference compound], which “reduction in MAP” value (obese ZSF1 rats [1]) is on record?
**A.** ~ 50 mmHg

**Q.** And the “MAP at Week 10” value (obese ZSF1 rats [2]; obese ZSF1, enalapril 3 mg/kg/day in drinking water, obese control 122 ± 1)?
**A.** 111 ± 1 mmHg

**Q.** What about the fasting blood glucose (obese ZSF1 rats [2]; obese ZSF1, enalapril 3 mg/kg/day, week 9, obese control 279.4 ± 36.5) of the same molecule?
**A.** 276.5 ± 30.9 mg/dL

**Q.** And the “change from baseline NT-proBNP” value (obese ZSF1 rats [2]; obese ZSF1, enalapril 3 mg/kg/day, baseline to end of treatment, obese control +86 ± 22)?
**A.** +44 ± 28 pg/ml

**Q.** And the total kidney weight (obese ZSF1 rats [2]; obese ZSF1, enalapril 3 mg/kg/day, obese control 9.7 ± 0.2, lean 7.4 ± 0.07)?
**A.** 9.5 ± 0.3 g/kg BW

**Q.** And the “renal pathology sum score” value (obese ZSF1 rats [2]; obese ZSF1, enalapril 3 mg/kg/day, obese control 14.6 ± 0.2, p=0.025 vs obese control)?
**A.** 12.2 ± 0.4

**Q.** What about the liver weight (obese ZSF1 rats [2]; obese ZSF1, enalapril 3 mg/kg/day, obese control 72.0 ± 1.9) of the same molecule?
**A.** 70.5 ± 1.1 g/kg BW

**Q.** What about the “serum cholesterol at week 10” value (obese ZSF1 rats [2]; obese ZSF1, enalapril 3 mg/kg/day, obese control 428.6 ± 12.7) of the same molecule?
**A.** 383 ± 9.8 mg/dL

**Q.** What about the “serum triglycerides at week 10” value (obese ZSF1 rats [2]; obese ZSF1, enalapril 3 mg/kg/day, obese control 4913 ± 487.1) of the same molecule?
**A.** 3850 ± 326.0 mg/dL

**Q.** What about the “increase of proteinuria over 10-week treatment period” value (obese ZSF1 rats [2]; obese ZSF1, enalapril alone 3 mg/kg/day, obese controls 153%) of the same molecule?
**A.** 168%

**Q.** What about the “kidney weight, percent greater than in the lean control group” value (obese ZSF1 rats [2]; obese ZSF1 treated with enalapril) of the same molecule?
**A.** 28%

**Q.** Which volume of distribution [3] does the source give for `OC(CNc1nc(-c2cc(-c3ccon3)n(Cc3ccccc3F)n2)ncc1F)(C(F)(F)F)C(F)(F)F` [praliciguat] here?
**A.** 10.5 L/kg

**Q.** What does the source list for `CN1CC(=O)N2[C@H](c3ccc4c(c3)OCO4)c3[nH]c4ccccc4c3C[C@@H]2C1=O` [tadalafil]?
**A.** Cmax [4]: 1000 nM; effect on proliferation [5]: no effect; IC50 [6]: 4.5 µM; inhibition of VSMC proliferation by tadalafil alone [7]: did not inhibit vascular smooth muscle cell proliferation; also recorded: did not inhibit VSMC proliferation

Source: PMC7156612, “Olinciguat, an Oral sGC Stimulator, Exhibits Diverse Pharmacology Across Preclinical Models of Cardiovascular, Metabolic, Renal, and Inflammatory Disease” (Frontiers in Pharmacology, 2020)
